# Test system: U9-TR
# Assay: DNA fragmentation in whole cells (release of 3H-labeled DNA fragments, 4 h)
# Type: cell-based, human
# Method: DNA fragmentation in whole cells or normal nuclei isolated from U937 or MCF-7 cells was assayed by release of (3H)thymidine-labeled DNA fragments as described in detail previously (Wright et al. (1994) J. Exp. Med. 180, 2113-2123). DNA fragmentation induced by rADF treatment of isolated nuclei for four h was analyzed by agarose electrophoresis as described in detail previously (Wright et al. (1994) supra). In four h assays using isolated nuclei, the buffer was supplemented with an ATP regenerating system (2 mM ATP, 10 mM phosphocreatine, and 50 μg/ml creatine kinase).
# Another mechanism whereby cancer cells may resist apoptosis is through overexpression of heat shock (HS) proteins which have been found at high levels in most tumor cell biopsies (Jaattela, et al., 1999, Exp Cell Res 248:30-43). […] We have studied the mechanisms of apoptosis resistance using several variants derived from the U937 cell line. Variants generated by prolonged growth in the presence of TNF (U9-TR) or by nutritional depletion of intracellular NAD content (U9-NAD-) have been described in the literature previously (Wright, et al., 1992, Cancer Immunol Immunother 34:399-406; Wright, et al., 1996b, J. Exp. Med. 183: 463-477). Both of these variants were resistant to apoptosis induced by diverse agents, such as chemotherapeutic drugs, UV light, and TNF.
compound,measurement,value
"COc1cc([C@@H]2c3cc4c(cc3[C@@H](O[C@@H]3O[C@@H]5CO[C@@H](C)O[C@H]5[C@H](O)[C@H]3O)[C@H]3COC(=O)[C@H]23)OCO4)cc(OC)c1O [Etoposide, etoposide]",fold increase of IC50 values in resistant variants,> 41 fold

# Source: US20040191843A1, “Cell-killing molecules and methods of use thereof” (Palo Alto Institute of Molecular Medicine, priority 2003, published 2004)
